Earlier results in patent US20160030582A1 (MAYNE PHARMA INTERNATIONAL PTY. LTD., priority 2012, published 2016).
Where two headings read alike, the source gives them in different places.

Tests used:
[1] = tested on: typical infecting organisms for specific superficial and systemic mycoses; parameters: MIC90: unit not given here; conditions: for MIC RANGE: in µg/mL
[2] = Aspergillosis, A. flavus complex
[3] = Aspergillosis, A. fumigatus complex
[4] = Aspergillosis, A. nidulans complex
[5] = Aspergillosis, A. niger complex
[6] = Aspergillosis, A. terreus complex
[7] = tinea capitis, Microsporum sp. (audounti, canis, gypseum, ferrugineum et al.)
[8] = tinea capitis, Trichophyton sp. (tonsurans violaceum, soudanese, schoenleinii, mentagrophytes, verrucossum, et al.)
[9] = tinea corporis, Epidermophyton floccosum
[10] = tinea corporis, Microsporum sp. (canis, gypseum, et al.)
[11] = tinea corporis, Trichophyton sp. (rubrum, tonsurans interdigitale, mentagrophytes, concentricim, violaceum et al.)
[12] = tinea cruris, Epidermophyton floccosum
[13] = tinea cruris, Microsporum sp. (canis, et al.)
[14] = tinea cruris, Trichophyton sp. (rubrum, tonsurans interdigitale, mentagrophytes, et al.)
[15] = tinea manuum, Epidermophyton floccosum
[16] = tinea manuum, Trichophyton sp. (rubrum, interdigitale, mentagrophytes.)
[17] = tinea pedis, Epidermophyton floccosum
[18] = tinea pedis, Microsporum sp. (canis, gypseum, et al.)
[19] = tinea pedis, Trichophyton sp. (rubrum, tonsurans interdigitale, mentagrophytes, et al.)
[20] = tinea unguium, Epidermophyton floccosum
[21] = tinea unguium, Microsporum sp. (canis, et al.)
[22] = tinea unguium, Trichophyton sp. (rubrum, tonsurans interdigitale, mentagrophytes, et al.)

CCC(C)n1ncn(-c2ccc(N3CCN(c4ccc(OCC5COC(Cn6cncn6)(c6ccc(Cl)cc6Cl)O5)cc4)CC3)cc2)c1=O (centres unmarked) [itraconazole]
MIC90 [1]: MIC90 = 0.06 | MIC90 [1, 2]: MIC90 = 0.5 | MIC RANGE [1, 2]: 0.03-8 | MIC90 [1, 3]: MIC90 = 0.5 | MIC RANGE [1, 3]: 0.03-16 | MIC90 [1, 4]: MIC90 = 0.25 | MIC RANGE [1, 4]: 0.03-8 | MIC90 [1, 5]: MIC90 = 0.5 | MIC RANGE [1, 5]: 0.03-8 | MIC90 [1, 6]: MIC90 = 0.25 | MIC RANGE [1, 6]: 0.03-1 | MIC90 ([1]; Candidiasis, C. albicans): MIC90 = 0.125 | MIC RANGE ([1]; Candidiasis, C. albicans): 0.008-8 | MIC RANGE ([1]; Candidiasis, C. glabrata): 0.008-16 | MIC RANGE ([1]; Candidiasis, C. kruset): 0.008-8 | MIC RANGE ([1]; Candidiasis, C. tropicalis): 0.03-8 | MIC RANGE ([1]; Pityriasis versicolor, Malassezia sp. (florfur, globosa, obtuse, sympodialis etc).): 0.3-16 | MIC RANGE [1]: 0.03-8 | MIC90 [1, 7]: MIC90 = 0.25-0.5 | MIC RANGE [1, 7]: 0.01-4 | MIC90 [1, 8]: MIC90 = 0.25-0.5 | MIC RANGE [1, 8]: 0.01-8 | MIC90 [1, 9]: MIC90 = 0.125 | MIC RANGE [1, 9]: 0.01-8 | MIC90 [1, 10]: MIC90 = 0.25-0.5 | MIC RANGE [1, 10]: 0.01-4 | MIC90 [1, 11]: MIC90 = 0.25-0.5 | MIC RANGE [1, 11]: 0.01-8 | MIC90 [1, 12]: MIC90 = 0.125 | MIC RANGE [1, 12]: 0.01-8 | MIC90 [1, 13]: MIC90 = 0.25-0.5 | MIC RANGE [1, 13]: 0.01-4 | MIC90 [1, 14]: MIC90 = 0.25-0.5 | MIC RANGE [1, 14]: 0.01-8 | MIC90 [1, 15]: MIC90 = 0.125 | MIC RANGE [1, 15]: 0.01-8 | MIC90 [1, 16]: MIC90 = 0.25-0.5 | MIC RANGE [1, 16]: 0.01-8 | MIC90 [1, 17]: MIC90 = 0.125 | MIC RANGE [1, 17]: 0.01-8 | MIC90 [1, 18]: MIC90 = 0.25-0.5 | MIC RANGE [1, 18]: 0.01-4 | MIC90 [1, 19]: MIC90 = 0.25-0.5 | MIC RANGE [1, 19]: 0.01-8 | MIC90 [1, 20]: MIC90 = 0.125 | MIC RANGE [1, 20]: 0.01-8 | MIC90 [1, 21]: MIC90 = 0.25-0.5 | MIC RANGE [1, 21]: 0.01-4 | MIC90 [1, 22]: MIC90 = 0.25-0.5 | MIC RANGE [1, 22]: 0.01-8 | expected apparent plasma terminal elimination half-life (t½) (basis for sampling schedule of Example 12): 22 h | reduction of Cmax and AUC in the fasting state (compared to administration after a light meal): 50-70% | excreted unchanged in the feces (oral dose): 3-18%
